Results reported in patent US7384931B2, “Constrained compounds as CGRP-receptor antagonists” (Bristol-Myers Squibb Company, priority 2004, dated 2008).

Biological target: CGRP receptor (Homo sapiens, UniProt O60894+Q16602)
Assay: CGRP radioligand binding assay ([125I]-CGRP displacement, SK-N-MC homogenate)
Design: endogenous in cells; host or cells: SK-N-MC cells (homogenate/membrane pellet)
Conditions: displacement of [125I]-CGRP, room temperature 2 h
Experimental: CGRP Binding Assay. Tissue Culture. SK—N-MC cells were grown at 37° C. in 5% CO2 as a monolayer in medium consisting of MEM with Earle's salts and L-glutamine (Gibco) supplemented with 10% fetal bovine serum (Gibco). Cell Pellets. The cells were rinsed twice with phosphate-buffered saline (155 mM NaCl, 3.3 mM Na2HPO4, 1.1 mM KH2PO4, pH 7.4), and incubated for 5-10 min. at 4° C. in hypotonic lysis buffer consisting of 10 mM Tris (pH 7.4) and 5 mM EDTA. The cells were transferred from plates to polypropylene tubes (16×100 mm) and homogenized using a polytron. Homogenates were centrifuged at 32,000×g for 30 min. The pellets were resuspended in cold hypotonic lysis buffer with 0.1% mammalian protease inhibitor cocktail (Sigma) and assayed for protein concentration. The SK—N-MC homogenate was then aliquoted and stored at −80° C. until needed.
Radioligand Binding Assay. The compounds of invention were solubilized and carried through serial dilutions using 100% DMSO. Aliquots from the compound serial dilutions were further diluted 25 fold into assay buffer (50 mM Tris-Cl pH 7.5, 5 mM MgCl2, 0.005% Triton X-100) and transferred (volume 50 μl) into 96 well assay plates. [^125I]-CGRP (Amersham Biosciences) was diluted to 60 pM in assay buffer and a volume of 50 μl was added to each well. SK—N-MC pellets were thawed, diluted in assay buffer with fresh 0.1% mammalian protease inhibitor cocktail (Sigma), and homogenized again. SK—N-MC homogenate (5 μg/well) was added in a volume of 100 μl. The assay plates were then incubated at room temperature for 2 h. Assays were stopped by addition of excess cold wash buffer (20 mM Tris-Cl pH 7.5, 0.1% BSA) immediately followed by filtration over glass fiber filters (Whatman GF/B) previously soaked in 0.5% PEI. Non-specific binding was defined with 1 μM beta-CGRP. Protein bound radioactivity was determined using a gamma or scintillation counter. The IC50 was defined as the concentration of a compound of invention required to displace 50% of radioligand binding.

Sequence of CGRP receptor (Q16602 23-461): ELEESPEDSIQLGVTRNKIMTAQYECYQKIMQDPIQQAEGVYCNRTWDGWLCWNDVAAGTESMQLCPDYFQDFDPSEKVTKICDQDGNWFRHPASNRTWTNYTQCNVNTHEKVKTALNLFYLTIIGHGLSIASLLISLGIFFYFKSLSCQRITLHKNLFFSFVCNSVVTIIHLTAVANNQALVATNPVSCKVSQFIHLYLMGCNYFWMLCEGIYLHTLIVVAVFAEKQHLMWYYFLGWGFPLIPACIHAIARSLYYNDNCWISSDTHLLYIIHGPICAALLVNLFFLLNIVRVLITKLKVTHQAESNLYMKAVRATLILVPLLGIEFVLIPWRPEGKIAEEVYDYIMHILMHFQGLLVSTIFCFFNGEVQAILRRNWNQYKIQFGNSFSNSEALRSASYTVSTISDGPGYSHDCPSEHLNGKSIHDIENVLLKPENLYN
Sequence of CGRP receptor (O60894 27-148): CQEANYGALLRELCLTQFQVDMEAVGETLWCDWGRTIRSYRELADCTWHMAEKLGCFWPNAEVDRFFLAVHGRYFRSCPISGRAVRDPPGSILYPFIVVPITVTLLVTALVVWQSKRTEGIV

Row | SMILES | IC50 [µM]
1 | CC(C)(C)CN1Cc2c(cc(Cl)c3[nH]ncc23)C[C@@H](CC(=O)N2CCC(c3ccc(Cl)cc3Cl)CC2)C1=O [Example 93, (S)-4-chloro-7-(2-(4-(2,4-dichlorophenyl)piperidin-1-yl)-2-oxoethyl)-9-neopentyl-6,7,9,10-tetrahydroazepino[3,4-e]indazol-8(3H)-one] | 0.1 to 1
2 | O=C(C[C@@H]1Cc2cc(Br)c3[nH]ncc3c2CN(CC(F)(F)F)C1=O)N1CCC(c2cc3cccc(F)c3[nH]c2=O)CC1 [Example 98, (S)-4-bromo-7-(2-(4-(8-fluoro-2-oxo-1,2-dihydroquinolin-3-yl)piperidin-1-yl)-2-oxoethyl)-9-(2,2,2-trifluoroethyl)-6,7,9,10-tetrahydroazepino[3,4-e]indazol-8(3H)-one] | 0.01 to 0.1
3 | Cc1cc2c(c3cn[nH]c13)CN(CC(C)(C)C)C(=O)[C@H](CC(=O)N1CCC(c3cc4cccc(F)c4[nH]c3=O)CC1)C2 [Example 101, (S)-7-(2-(4-(8-fluoro-2-oxo-1,2-dihydroquinolin-3-yl)piperidin-1-yl)-2-oxoethyl)-4-methyl-9-neopentyl-6,7,9,10-tetrahydroazepino[3,4-e]indazol-8(3H)-one] | 0.01 to 0.1
4 | Cc1cc2c(c3cn[nH]c13)CN(CC(F)(F)F)C(=O)[C@H](CC(=O)N1CCC(c3cc4cccc(F)c4[nH]c3=O)CC1)C2 [Example 103, (S)-7-(2-(4-(8-fluoro-2-oxo-1,2-dihydroquinolin-3-yl)piperidin-1-yl)-2-oxoethyl)-4-methyl-9-(2,2,2-trifluoroethyl)-6,7,9,10-tetrahydroazepino[3,4-e]indazol-8(3H)-one] | 0.01 to 0.1
5 | CC(C)c1cc2c(c3cn[nH]c13)CN(CC(C)(C)C)C(=O)[C@H](CC(=O)N1CCC(c3cc4ccccc4[nH]c3=O)CC1)C2 [Example 104, (S)-4-isopropyl-9-neopentyl-7-(2-oxo-2-(4-(2-oxo-1,2-dihydroquinolin-3-yl)piperidin-1-yl)ethyl)-6,7,9,10-tetrahydroazepino[3,4-e]indazol-8(3H)-one] | 0.01 to 0.1
6 | CC(C)c1cc2c(c3cn[nH]c13)CN(CC(C)(C)C)C(=O)[C@H](CC(=O)N1CCC(c3cc4cccc(F)c4[nH]c3=O)CC1)C2 [Example 105, (S)-7-(2-(4-(8-fluoro-2-oxo-1,2-dihydroquinolin-3-yl)piperidin-1-yl)-2-oxoethyl)-4-isopropyl-9-neopentyl-6,7,9,10-tetrahydroazepino[3,4-e]indazol-8(3H)-one] | 0.01 to 0.1
7 | CC(C)c1cc2c(c3cn[nH]c13)CN(CC(F)(F)F)C(=O)[C@H](CC(=O)N1CCC(c3cc4ccccc4[nH]c3=O)CC1)C2 [Example 106, (S)-4-isopropyl-7-(2-oxo-2-(4-(2-oxo-1,2-dihydroquinolin-3-yl)piperidin-1-yl)ethyl)-9-(2,2,2-trifluoroethyl)-6,7,9,10-tetrahydroazepino[3,4-e]indazol-8(3H)-one] | 0.01 to 0.1
8 | CC(C)c1cc2c(c3cn[nH]c13)CN(CC(F)(F)F)C(=O)[C@H](CC(=O)N1CCC(c3cc4cccc(F)c4[nH]c3=O)CC1)C2 [Example 107, (S)-7-(2-(4-(8-fluoro-2-oxo-1,2-dihydroquinolin-3-yl)piperidin-1-yl)-2-oxoethyl)-4-isopropyl-9-(2,2,2-trifluoroethyl)-6,7,9,10-tetrahydroazepino[3,4-e]indazol-8(3H)-one] | 0.1 to 1
9 | C=C(C)c1cc2c(c3cn[nH]c13)CN(CC(F)(F)F)C(=O)[C@H](CC(=O)N1CCC(c3cc4ccccc4[nH]c3=O)CC1)C2 [Example 108, (S)-7-(2-oxo-2-(4-(2-oxo-1,2-dihydroquinolin-3-yl)piperidin-1-yl)ethyl)-4-(prop-1-en-2-yl)-9-(2,2,2-trifluoroethyl)-6,7,9,10-tetrahydroazepino[3,4-e]indazol-8(3H)-one] | 0.01 to 0.1
10 | C=C(C)c1cc2c(c3cn[nH]c13)CN(CC(F)(F)F)C(=O)[C@H](CC(=O)N1CCC(c3cc4cccc(F)c4[nH]c3=O)CC1)C2 [Example 109, (S)-7-(2-(4-(8-fluoro-2-oxo-1,2-dihydroquinolin-3-yl)piperidin-1-yl)-2-oxoethyl)-4-(prop-1-en-2-yl)-9-(2,2,2-trifluoroethyl)-6,7,9,10-tetrahydroazepino[3,4-e]indazol-8(3H)-one] | 0.1 to 1
11 | O=C(C[C@@H]1Cc2cc(Br)c3[nH]ncc3c2CN(CC2CC2)C1=O)N1CCC(c2cc3cccc(F)c3[nH]c2=O)CC1 [Example 112, (S)-4-bromo-9-(cyclopropylmethyl)-7-(2-(4-(8-fluoro-2-oxo-1,2-dihydroquinolin-3-yl)piperidin-1-yl)-2-oxoethyl)-6,7,9,10-tetrahydroazepino[3,4-e]indazol-8(3H)-one] | 0.01 to 0.1

Results, then the compound that gave them:

Row | IC50 [µM] | SMILES
12 | 0.0001 to 0.01 | O=C(C[C@@H]1Cc2cc(Cl)c3[nH]ncc3c2CN(CC(F)(F)F)C1=O)N1CCC(c2cc3ccccc3[nH]c2=O)CC1 [Example 90, (S)-4-chloro-7-(2-oxo-2-(4-(2-oxo-1,2-dihydroquinolin-3-yl)piperidin-1-yl)ethyl)-9-(2,2,2-trifluoroethyl)-6,7,9,10-tetrahydroazepino[3,4-e]indazol-8(3H)-one]
13 | 0.0001 to 0.01 | O=C(C[C@@H]1Cc2cc(Cl)c3[nH]ncc3c2CN(CC(F)(F)F)C1=O)N1CCC(c2cc3cccc(F)c3[nH]c2=O)CC1 [Example 91, (S)-4-chloro-7-(2-(4-(8-fluoro-2-oxo-1,2-dihydroquinolin-3-yl)piperidin-1-yl)-2-oxoethyl)-9-(2,2,2-trifluoroethyl)-6,7,9,10-tetrahydroazepino[3,4-e]indazol-8(3H)-one]
14 | 0.01 to 0.1 | CC(C)(C)CN1Cc2c(cc(Cl)c3[nH]ncc23)C[C@@H](CC(=O)N2CCC(C3=Cc4ccccc4NS3(=O)=O)CC2)C1=O [Example 92]
15 | 0.0001 to 0.01 | CC(C)(C)CN1Cc2c(cc(Br)c3[nH]ncc23)C[C@@H](CC(=O)N2CCC(c3cc4ccccc4[nH]c3=O)CC2)C1=O [Example 94, (S)-4-bromo-9-neopentyl-7-(2-oxo-2-(4-(2-oxo-1,2-dihydroquinolin-3-yl)piperidin-1-yl)ethyl)-6,7,9,10-tetrahydroazepino[3,4-e]indazol-8(3H)-one]
16 | 0.01 to 0.1 | CC(C)(C)CN1Cc2c(cc(Br)c3[nH]ncc23)C[C@@H](CC(=O)N2CCC(c3cc4cccc(F)c4[nH]c3=O)CC2)C1=O [Example 95, (S)-4-bromo-7-(2-(4-(8-fluoro-2-oxo-1,2-dihydroquinolin-3-yl)piperidin-1-yl)-2-oxoethyl)-9-neopentyl-6,7,9,10-tetrahydroazepino[3,4-e]indazol-8(3H)-one]
17 | 0.0001 to 0.01 | O=C(C[C@@H]1Cc2cc(Br)c3[nH]ncc3c2CN(CC(F)(F)F)C1=O)N1CCC(c2cc3cccnc3[nH]c2=O)CC1 [Example 96, (S)-4-bromo-7-(2-oxo-2-(4-(2-oxo-1,2-dihydro-1,8-naphthyridin-3-yl)piperidin-1-yl)ethyl)-9-(2,2,2-trifluoroethyl)-6,7,9,10-tetrahydroazepino[3,4-e]indazol-8(3H)-one]
18 | 0.0001 to 0.01 | O=C(C[C@@H]1Cc2cc(Br)c3[nH]ncc3c2CN(CC(F)(F)F)C1=O)N1CCC(c2cc3ccccc3[nH]c2=O)CC1 [Example 97, (S)-4-bromo-7-(2-oxo-2-(4-(2-oxo-1,2-dihydroquinolin-3-yl)piperidin-1-yl)ethyl)-9-(2,2,2-trifluoroethyl)-6,7,9,10-tetrahydroazepino[3,4-e]indazol-8(3H)-one]
19 | 0.0001 to 0.01 | CC(C)(C)CN1Cc2c(cc(Cl)c3[nH]ncc23)C[C@@H](N/C(=N/C#N)N2CCC(c3cc4ccccc4[nH]c3=O)CC2)C1=O [Example 99]
20 | 0.0001 to 0.01 | Cc1cc2c(c3cn[nH]c13)CN(CC(C)(C)C)C(=O)[C@H](CC(=O)N1CCC(c3cc4ccccc4[nH]c3=O)CC1)C2 [Example 100, (S)-4-methyl-9-neopentyl-7-(2-oxo-2-(4-(2-oxo-1,2-dihydroquinolin-3-yl)piperidin-1-yl)ethyl)-6,7,9,10-tetrahydroazepino[3,4-e]indazol-8(3H)-one]
21 | 0.0001 to 0.01 | Cc1cc2c(c3cn[nH]c13)CN(CC(F)(F)F)C(=O)[C@H](CC(=O)N1CCC(c3cc4ccccc4[nH]c3=O)CC1)C2 [Example 102, (S)-4-methyl-7-(2-oxo-2-(4-(2-oxo-1,2-dihydroquinolin-3-yl)piperidin-1-yl)ethyl)-9-(2,2,2-trifluoroethyl)-6,7,9,10-tetrahydroazepino[3,4-e]indazol-8(3H)-one]
22 | 0.0001 to 0.01 | COCCN1Cc2c(cc(Br)c3[nH]ncc23)C[C@@H](CC(=O)N2CCC(c3cc4ccccc4[nH]c3=O)CC2)C1=O [Example 113, (S)-4-bromo-9-(2-methoxyethyl)-7-(2-oxo-2-(4-(2-oxo-1,2-dihydroquinolin-3-yl)piperidin-1-yl)ethyl)-6,7,9,10-tetrahydroazepino[3,4-e]indazol-8(3H)-one]
23 | 0.0001 to 0.01 | CC(C)(C)CN1Cc2c(cc(Cl)c3[nH]ncc23)C[C@@H](CC(=O)N2CCC(c3cc4ccc(Cl)cc4[nH]c3=O)CC2)C1=O [Example 116]
